Test results reported in the supplement of paper PMC10307832.

Experiments:
Experiment in all cases: relative viability (nuclei count vs DMSO), 5 days (fraction); higher = more cells survive
[1] = compound: C1=CC=C2C(=C1)C=CC(=C2SSC3=C(C=CC4=CC=CC=C43)O)O [IPA-3] + Nc1ncn([C@H]2C[C@H](O)[C@@H](CO)O2)c(=O)n1 [Decitabine] (partner 2 µM)
How it was run: (§1)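 Dosing by pin tool came one day after lung cancer cell lines were seeded in 1536-well plates, using either one drug or a fixed anchor-drug dose plus five library-drug doses (not always all listed) in √10 steps. After 5 days, nuclei were counted on 4× images. Relative viability is treated-well nuclei count divided by vehicle-well nuclei count, and values are medians of duplicate plates.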

[2] = compound: C1=CC=C2C(=C1)C=CC(=C2SSC3=C(C=CC4=CC=CC=C43)O)O [IPA-3] + C[C@@H](Oc1cc(-c2cnn(C3CCNCC3)c2)cnc1N)c1c(Cl)ccc(F)c1Cl [Crizotinib] (partner 1 µM)
How it was run: as §1

[3] = compound: Cn1c(Nc2ccc(C(F)(F)F)cc2)nc2cc(Oc3ccnc(-c4ncc(C(F)(F)F)[nH]4)c3)ccc21 [RAF265] + CC(C)C[C@H](NC(=O)[C@H](Cc1ccccc1)NC(=O)c1cnccn1)B(O)O [Bortezomib] (partner 0.002 µM)
How it was run: as §1

[4] = compound: C1=CC=C2C(=C1)C=CC(=C2SSC3=C(C=CC4=CC=CC=C43)O)O [IPA-3] + C[C@]1(O)C[C@@H](c2nc(-c3ccc4ccc(-c5ccccc5)nc4c3)c3c(N)nccn32)C1 [Linsitinib] (partner 1 µM)
How it was run: as §1

How did the relative viability ([1]; first compound 0.2 µM) turn out when NCI-H520 was run?
Its relative viability is 0.528.

What about the relative viability ([1]; first compound 0.6325 µM) of the same cell line?
The relative viability was 0.523.

And the relative viability ([1]; first compound 6.325 µM)?
Its relative viability is 0.413.

What about the relative viability ([1]; first compound 20 µM) of the same cell line?
The relative viability was 0.453.

And the relative viability ([2]; first compound 0.2 µM)?
The relative viability was 0.962.

And the relative viability ([2]; first compound 0.6325 µM)?
The relative viability was 0.803.

And the relative viability ([2]; first compound 2 µM)?
Its relative viability is 0.682.

What about the relative viability ([2]; first compound 6.325 µM) of the same cell line?
Its relative viability is 0.74.

What about the relative viability ([2]; first compound 20 µM) of the same cell line?
The relative viability was 0.919.

What about the relative viability ([3]; first compound 0.01 µM) of the same cell line?
Its relative viability is 0.389.

What about the relative viability ([3]; first compound 0.03162 µM) of the same cell line?
Its relative viability is 0.547.

And the relative viability ([3]; first compound 0.1 µM)?
Its relative viability is 0.545.

What about the relative viability ([3]; first compound 0.3162 µM) of the same cell line?
Its relative viability is 0.486.

And the relative viability ([3]; first compound 1 µM)?
The relative viability was 0.202.

And the relative viability ([4]; first compound 0.2 µM)?
The relative viability was 1.02.

What about the relative viability ([4]; first compound 0.6325 µM) of the same cell line?
Its relative viability is 0.951.

And the relative viability ([4]; first compound 2 µM)?
The relative viability was 1.03.

What about the relative viability ([4]; first compound 6.325 µM) of the same cell line?
The relative viability was 0.855.

What about the relative viability ([4]; first compound 20 µM) of the same cell line?
The relative viability was 0.982.

NCI-H596 was tested. Which relative viability ([1]; first compound 0.2 µM) did it give?
The relative viability was 1.09.

And the relative viability ([1]; first compound 0.6325 µM)?
Its relative viability is 0.984.

And the relative viability ([1]; first compound 2 µM)?
The relative viability was 1.06.

And the relative viability ([1]; first compound 6.325 µM)?
Its relative viability is 0.963.

And the relative viability ([1]; first compound 20 µM)?
The relative viability was 1.08.

And the relative viability ([2]; first compound 0.2 µM)?
Its relative viability is 1.08.

And the relative viability ([2]; first compound 0.6325 µM)?
The relative viability was 0.597.

What about the relative viability ([2]; first compound 2 µM) of the same cell line?
Its relative viability is 1.08.

And the relative viability ([2]; first compound 6.325 µM)?
Its relative viability is 1.1.

And the relative viability ([2]; first compound 20 µM)?
The relative viability was 1.24.

What about the relative viability ([3]; first compound 0.01 µM) of the same cell line?
Its relative viability is 1.18.

And the relative viability ([3]; first compound 0.03162 µM)?
The relative viability was 0.987.

And the relative viability ([3]; first compound 0.1 µM)?
The relative viability was 1.08.

What about the relative viability ([3]; first compound 0.3162 µM) of the same cell line?
Its relative viability is 0.85.

And the relative viability ([3]; first compound 1 µM)?
Its relative viability is 0.743.

And the relative viability ([4]; first compound 0.2 µM)?
The relative viability was 1.3.

What about the relative viability ([4]; first compound 0.6325 µM) of the same cell line?
The relative viability was 0.993.

And the relative viability ([4]; first compound 2 µM)?
Its relative viability is 1.04.

And the relative viability ([4]; first compound 6.325 µM)?
The relative viability was 1.09.

And the relative viability ([4]; first compound 20 µM)?
The relative viability was 1.14.

For NCI-H647, which relative viability ([1]; first compound 0.2 µM) is on record?
Its relative viability is 0.502.

And the relative viability ([1]; first compound 0.6325 µM)?
The relative viability was 0.396.

What about the relative viability ([1]; first compound 2 µM) of the same cell line?
The relative viability was 0.397.

What about the relative viability ([1]; first compound 6.325 µM) of the same cell line?
Its relative viability is 0.206.

What about the relative viability ([1]; first compound 20 µM) of the same cell line?
Its relative viability is 0.134.

What about the relative viability ([2]; first compound 0.2 µM) of the same cell line?
Its relative viability is 1.22.

What about the relative viability ([2]; first compound 0.6325 µM) of the same cell line?
Its relative viability is 1.01.

What about the relative viability ([2]; first compound 2 µM) of the same cell line?
The relative viability was 0.991.

And the relative viability ([2]; first compound 6.325 µM)?
The relative viability was 0.596.

What about the relative viability ([2]; first compound 20 µM) of the same cell line?
Its relative viability is 0.173.

And the relative viability ([3]; first compound 0.01 µM)?
Its relative viability is 0.949.

What about the relative viability ([3]; first compound 0.03162 µM) of the same cell line?
The relative viability was 0.806.

And the relative viability ([3]; first compound 0.1 µM)?
The relative viability was 0.686.

And the relative viability ([3]; first compound 0.3162 µM)?
Its relative viability is 0.58.

What about the relative viability ([3]; first compound 1 µM) of the same cell line?
The relative viability was 0.426.

What about the relative viability ([4]; first compound 0.2 µM) of the same cell line?
Its relative viability is 1.52.

What about the relative viability ([4]; first compound 0.6325 µM) of the same cell line?
Its relative viability is 1.01.

And the relative viability ([4]; first compound 2 µM)?
Its relative viability is 1.11.

And the relative viability ([4]; first compound 6.325 µM)?
The relative viability was 0.641.

And the relative viability ([4]; first compound 20 µM)?
Its relative viability is 0.38.

Which relative viability ([1]; first compound 0.2 µM) does the source give for NCI-H650 here?
Its relative viability is 0.297.

What about the relative viability ([1]; first compound 0.6325 µM) of the same cell line?
Its relative viability is 0.33.

And the relative viability ([1]; first compound 2 µM)?
The relative viability was 0.292.

And the relative viability ([1]; first compound 6.325 µM)?
The relative viability was 0.294.

And the relative viability ([1]; first compound 20 µM)?
The relative viability was 0.348.

What about the relative viability ([2]; first compound 0.2 µM) of the same cell line?
The relative viability was 0.824.

What about the relative viability ([2]; first compound 0.6325 µM) of the same cell line?
The relative viability was 0.548.

And the relative viability ([2]; first compound 2 µM)?
Its relative viability is 0.627.

What about the relative viability ([2]; first compound 6.325 µM) of the same cell line?
The relative viability was 0.802.

What about the relative viability ([2]; first compound 20 µM) of the same cell line?
The relative viability was 0.909.

What about the relative viability ([3]; first compound 0.01 µM) of the same cell line?
Its relative viability is 0.836.

And the relative viability ([3]; first compound 0.03162 µM)?
Its relative viability is 0.781.

And the relative viability ([3]; first compound 0.1 µM)?
Its relative viability is 0.793.

And the relative viability ([3]; first compound 0.3162 µM)?
The relative viability was 0.539.

And the relative viability ([3]; first compound 1 µM)?
Its relative viability is 0.32.

What about the relative viability ([4]; first compound 0.2 µM) of the same cell line?
The relative viability was 0.89.

What about the relative viability ([4]; first compound 0.6325 µM) of the same cell line?
The relative viability was 0.966.

And the relative viability ([4]; first compound 2 µM)?
The relative viability was 0.877.

And the relative viability ([4]; first compound 6.325 µM)?
The relative viability was 0.788.

What about the relative viability ([4]; first compound 20 µM) of the same cell line?
The relative viability was 1.07.

What does the source list for NCI-H661?
relative viability ([1]; first compound 0.2 µM): 0.664; relative viability ([1]; first compound 0.6325 µM): 0.548; relative viability ([1]; first compound 2 µM): 0.528; relative viability ([1]; first compound 6.325 µM): 0.543; relative viability ([1]; first compound 20 µM): 0.528; relative viability ([2]; first compound 0.2 µM): 1.06; relative viability ([2]; first compound 0.6325 µM): 0.847; relative viability ([2]; first compound 2 µM): 1.08; relative viability ([2]; first compound 6.325 µM): 0.988; relative viability ([2]; first compound 20 µM): 1.03; relative viability ([3]; first compound 0.01 µM): 0.87; relative viability ([3]; first compound 0.03162 µM): 0.649; relative viability ([3]; first compound 0.1 µM): 0.862; relative viability ([3]; first compound 0.3162 µM): 0.657; relative viability ([3]; first compound 1 µM): 0.403; relative viability ([4]; first compound 0.2 µM): 0.52; relative viability ([4]; first compound 0.6325 µM): 0.466; relative viability ([4]; first compound 2 µM): 0.712; relative viability ([4]; first compound 6.325 µM): 0.598; relative viability ([4]; first compound 20 µM): 0.646

NCI-H727 was tested. Which relative viability ([1]; first compound 0.2 µM) did it give?
The relative viability was 0.783.

And the relative viability ([1]; first compound 0.6325 µM)?
The relative viability was 0.916.

What about the relative viability ([1]; first compound 2 µM) of the same cell line?
The relative viability was 0.71.

And the relative viability ([1]; first compound 6.325 µM)?
Its relative viability is 0.867.

What about the relative viability ([1]; first compound 20 µM) of the same cell line?
The relative viability was 0.997.

And the relative viability ([2]; first compound 0.2 µM)?
The relative viability was 0.937.

And the relative viability ([2]; first compound 0.6325 µM)?
Its relative viability is 0.765.

And the relative viability ([2]; first compound 2 µM)?
Its relative viability is 0.818.

And the relative viability ([2]; first compound 6.325 µM)?
Its relative viability is 0.699.

What about the relative viability ([2]; first compound 20 µM) of the same cell line?
Its relative viability is 0.792.

What about the relative viability ([3]; first compound 0.01 µM) of the same cell line?
The relative viability was 0.855.

And the relative viability ([3]; first compound 0.03162 µM)?
The relative viability was 0.783.

What about the relative viability ([3]; first compound 0.1 µM) of the same cell line?
The relative viability was 0.908.

And the relative viability ([3]; first compound 0.3162 µM)?
Its relative viability is 0.796.

And the relative viability ([3]; first compound 1 µM)?
The relative viability was 0.456.

What about the relative viability ([4]; first compound 0.2 µM) of the same cell line?
Its relative viability is 0.265.

What about the relative viability ([4]; first compound 0.6325 µM) of the same cell line?
Its relative viability is 0.186.

And the relative viability ([4]; first compound 2 µM)?
Its relative viability is 0.271.

And the relative viability ([4]; first compound 6.325 µM)?
Its relative viability is 0.34.

And the relative viability ([4]; first compound 20 µM)?
The relative viability was 0.226.
